What was measured:
Assay in all cases: Competitive isoTOP-ABPP, cell lysates
Format in all cases: binding
[1] = biological target: T1, ERCC3 C342 (P19447) (Homo sapiens, UniProt P19447); details: for R value (DMSO/fragment): in vitro; for isoTOP-ABPP ratio P19447_C342: invitro; for isoTOP-ABPP ratio (reactivity profile), P19447_C342: 500 μm in-vitro ramos_231
T1 sequence (P19447 1-782): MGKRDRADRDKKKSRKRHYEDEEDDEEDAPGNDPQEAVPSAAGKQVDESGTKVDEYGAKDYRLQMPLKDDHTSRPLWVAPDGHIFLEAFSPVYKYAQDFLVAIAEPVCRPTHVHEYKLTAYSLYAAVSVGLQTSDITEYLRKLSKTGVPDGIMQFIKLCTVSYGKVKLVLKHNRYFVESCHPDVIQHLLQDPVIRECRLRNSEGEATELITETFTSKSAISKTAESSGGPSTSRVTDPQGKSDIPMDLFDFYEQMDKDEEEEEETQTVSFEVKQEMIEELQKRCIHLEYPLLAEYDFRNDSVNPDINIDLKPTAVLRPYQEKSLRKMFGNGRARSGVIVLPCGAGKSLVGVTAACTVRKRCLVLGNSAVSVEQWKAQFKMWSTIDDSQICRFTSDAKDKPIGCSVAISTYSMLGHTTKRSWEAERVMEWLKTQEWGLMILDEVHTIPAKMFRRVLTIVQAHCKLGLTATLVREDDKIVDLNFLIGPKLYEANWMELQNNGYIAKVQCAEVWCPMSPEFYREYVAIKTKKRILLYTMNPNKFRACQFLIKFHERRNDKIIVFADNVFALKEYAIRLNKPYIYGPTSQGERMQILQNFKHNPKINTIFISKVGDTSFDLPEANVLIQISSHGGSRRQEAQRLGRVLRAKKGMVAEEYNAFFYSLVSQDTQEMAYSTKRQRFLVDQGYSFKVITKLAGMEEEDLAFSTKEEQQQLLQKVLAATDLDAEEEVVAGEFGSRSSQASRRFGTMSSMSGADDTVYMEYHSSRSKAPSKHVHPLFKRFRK
Procedure: TEV digests were pressure loaded onto a 250 μm (inner diameter) fused silica capillary column packed with C18 resin (Aqua 5 μm, Phenomenex). The samples were analyzed by multidimensional liquid chromatography tandem mass spectrometry (MudPIT), using an LTQ-Velos Orbitrap mass spectrometer (Thermo Scientific) coupled to an Agilent 1200-series quaternary pump. […] One full MS (MS1) scan (400-1800 m/z) was followed by 30 MS2 scans (ITMS) of the nth most abundant ions.
The ratios of heavy/light for each unique peptide (DMSO/compound treated; isoTOP-ABPP ratios, R values) were quantified with in-house CIMAGE software, using default parameters (3 ms s per peak and signal to noise threshold 2.5). Site-specific engagement of electrophilic fragments was assessed by blockade of IA-alkyne probe labeling. […] Ratios for unique peptide entries were calculated for each experiment; overlapping peptides with the same modified cysteine (e.g. different charge states, MudPIT chromatographic steps or tryptic termini) were grouped together and the median ratio was reported as the final ratio (R). The peptide ratios reported by CIMAGE were further filtered to ensure the removal or correction of low quality ratios in each individual dataset. The quality filters applied were the following: removal of half tryptic peptides; for ratios with high standard deviations from the median (90% of the median or above) the lowest ratio was taken instead of the median; removal of peptides with R=20 and only a single ms2 event triggered during the elution of the parent ion; manual annotation of all the peptides with ratios of 20, removing any peptides with low-quality elution profiles that remained after the previous curation steps. Proteome reactivity values for individual fragments were computed as the percentage of the total quantified cysteine-containing peptides with R values≥4 (defined as liganded cysteines) for each replicate experiment and the final proteome reactivity value was calculated as the mean for all replicate experiments for each fragment from both MDA-MB-231 and Ramos cellular proteomes.
Biological replicates of the same compound and cell-line were averaged if the standard deviation was below 60% of the mean; otherwise the lowest value of the ratio set was taken. For peptides with multiple modified cysteines, the cysteine with the highest number of quantification events was kept and the remaining, redundant peptides were discarded. […] Although the majority (>75% of fragments) were profiled in at least two biological replicates, some data from single replicate MS experiments were included.

[2] = biological target: T2, ACAT1 C196 (P24752) (Homo sapiens, UniProt P24752)
T2 sequence (P24752 34-427): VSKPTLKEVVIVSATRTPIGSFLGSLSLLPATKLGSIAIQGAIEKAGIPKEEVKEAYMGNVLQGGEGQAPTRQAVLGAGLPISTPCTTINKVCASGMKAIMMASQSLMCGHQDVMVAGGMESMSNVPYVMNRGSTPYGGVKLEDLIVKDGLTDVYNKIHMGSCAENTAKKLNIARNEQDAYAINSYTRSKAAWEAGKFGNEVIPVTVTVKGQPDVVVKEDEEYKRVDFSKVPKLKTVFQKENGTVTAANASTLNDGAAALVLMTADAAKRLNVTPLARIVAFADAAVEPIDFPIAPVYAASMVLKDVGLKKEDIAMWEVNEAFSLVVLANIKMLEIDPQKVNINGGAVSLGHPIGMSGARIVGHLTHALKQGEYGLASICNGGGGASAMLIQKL

[3] = biological target: T3, ACAT1 C126 (P24752) (Homo sapiens, UniProt P24752)
T3 sequence (P24752 34-427): T2 sequence (P24752 34-427)

[4] = biological target: T4, MGMT C145 (P16455) (Homo sapiens, UniProt P16455); details: for isoTOP-ABPP ratio (reactivity profile), P16455_C145: 500 μm in-vitro ramos
T4 sequence (P16455 1-207): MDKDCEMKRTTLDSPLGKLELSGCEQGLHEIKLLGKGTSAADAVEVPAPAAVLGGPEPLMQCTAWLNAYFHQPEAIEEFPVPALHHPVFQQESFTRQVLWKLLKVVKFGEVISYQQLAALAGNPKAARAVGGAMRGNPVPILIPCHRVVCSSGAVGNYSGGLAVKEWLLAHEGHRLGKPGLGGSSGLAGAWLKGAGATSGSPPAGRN

[5] = biological target: EZH2 C503 (Q15910) (Homo sapiens, UniProt Q15910)
Chain of EZH2 C503 (Q15910) (Q15910 whole entry): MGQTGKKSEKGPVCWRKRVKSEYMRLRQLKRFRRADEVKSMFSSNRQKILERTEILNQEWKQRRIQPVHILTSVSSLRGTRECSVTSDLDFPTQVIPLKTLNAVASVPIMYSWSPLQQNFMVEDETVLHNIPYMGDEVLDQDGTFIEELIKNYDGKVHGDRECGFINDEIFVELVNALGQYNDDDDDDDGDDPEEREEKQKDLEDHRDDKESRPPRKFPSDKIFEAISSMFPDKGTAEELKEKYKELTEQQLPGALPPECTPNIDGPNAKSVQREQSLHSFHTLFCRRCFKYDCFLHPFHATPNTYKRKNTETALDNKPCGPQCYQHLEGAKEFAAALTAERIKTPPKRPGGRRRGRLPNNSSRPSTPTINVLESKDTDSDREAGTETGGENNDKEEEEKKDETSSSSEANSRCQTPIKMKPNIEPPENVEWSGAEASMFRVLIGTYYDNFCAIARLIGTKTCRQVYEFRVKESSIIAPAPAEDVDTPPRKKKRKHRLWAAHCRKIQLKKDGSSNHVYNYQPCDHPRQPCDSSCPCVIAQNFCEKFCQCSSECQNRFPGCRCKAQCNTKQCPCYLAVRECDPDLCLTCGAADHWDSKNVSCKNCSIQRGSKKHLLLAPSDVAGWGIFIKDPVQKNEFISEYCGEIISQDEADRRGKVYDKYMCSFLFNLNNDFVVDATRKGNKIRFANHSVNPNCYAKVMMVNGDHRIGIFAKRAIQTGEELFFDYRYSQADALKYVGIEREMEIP
Chain of EZH2 C503 (Q15910) (O75530 whole entry partner): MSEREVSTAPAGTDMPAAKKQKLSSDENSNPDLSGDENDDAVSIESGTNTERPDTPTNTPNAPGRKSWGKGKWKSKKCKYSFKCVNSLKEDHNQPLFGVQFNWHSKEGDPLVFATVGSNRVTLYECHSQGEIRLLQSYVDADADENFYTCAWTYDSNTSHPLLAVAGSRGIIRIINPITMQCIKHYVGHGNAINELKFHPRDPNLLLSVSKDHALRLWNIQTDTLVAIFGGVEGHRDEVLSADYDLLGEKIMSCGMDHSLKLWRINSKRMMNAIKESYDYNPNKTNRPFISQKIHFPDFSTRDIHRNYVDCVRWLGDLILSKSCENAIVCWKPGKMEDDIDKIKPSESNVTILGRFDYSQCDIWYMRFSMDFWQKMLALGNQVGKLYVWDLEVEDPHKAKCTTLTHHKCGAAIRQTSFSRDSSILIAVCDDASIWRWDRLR
Chain of EZH2 C503 (Q15910) (Q15022 whole entry partner): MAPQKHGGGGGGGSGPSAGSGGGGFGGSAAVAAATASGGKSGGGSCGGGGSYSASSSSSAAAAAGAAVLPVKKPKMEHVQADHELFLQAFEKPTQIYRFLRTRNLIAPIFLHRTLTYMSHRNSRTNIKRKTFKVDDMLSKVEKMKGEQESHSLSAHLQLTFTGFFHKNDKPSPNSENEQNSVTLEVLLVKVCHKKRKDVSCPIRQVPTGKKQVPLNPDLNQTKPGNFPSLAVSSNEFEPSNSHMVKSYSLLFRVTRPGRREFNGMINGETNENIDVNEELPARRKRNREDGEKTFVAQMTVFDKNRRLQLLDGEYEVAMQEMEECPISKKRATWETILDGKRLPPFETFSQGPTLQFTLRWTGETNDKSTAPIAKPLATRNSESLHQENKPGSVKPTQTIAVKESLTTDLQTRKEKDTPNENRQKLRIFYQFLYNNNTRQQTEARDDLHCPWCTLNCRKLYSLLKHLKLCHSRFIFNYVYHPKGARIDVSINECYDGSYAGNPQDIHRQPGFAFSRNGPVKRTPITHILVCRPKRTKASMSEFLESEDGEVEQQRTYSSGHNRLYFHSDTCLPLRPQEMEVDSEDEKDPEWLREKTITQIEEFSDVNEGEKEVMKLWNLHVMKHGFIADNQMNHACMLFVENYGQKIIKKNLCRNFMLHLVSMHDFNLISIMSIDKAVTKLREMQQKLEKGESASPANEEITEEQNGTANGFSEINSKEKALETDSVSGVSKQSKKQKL

In the case of `COc1ccc2c(c1)CCCN2C(=O)CCl` [compound 2], the “R value (DMSO/fragment)” value ([1]; 500 μM, MDA-MB-231) is reported as 20.0, the “R value (DMSO/fragment)” value ([2]; 500 μM, in vitro, MDA-MB-231) is reported as 12.4 and the “R value (DMSO/fragment)” value ([2]; 500 μM, invitro, ramos) is reported as 9.3. For the same compound, the “R value (DMSO/fragment)” value ([3]; 500 μM, in vitro, MDA-MB-231) was 20.0, the “R value (DMSO/fragment)” value ([4]; 500 μM, invitro, ramos) was 20.0 and the “R value (DMSO/fragment)” value ([5]; 500 μM, invitro, ramos) was 2.8.

In the case of `O=C(CCl)Nc1cc(C(F)(F)F)cc(C(F)(F)F)c1` [compound 3], the “R value (DMSO/fragment)” value ([1]; 500 μM, MDA-MB-231) is reported as 12.1, the “R value (DMSO/fragment)” value ([2]; 500 μM, in vitro, MDA-MB-231) is reported as 1.7 and the “R value (DMSO/fragment)” value ([2]; 500 μM, invitro, ramos) is reported as 3.1. For the same compound, the “R value (DMSO/fragment)” value ([3]; 500 μM, in vitro, MDA-MB-231) was 2.6, the “R value (DMSO/fragment)” value ([3]; 500 μM, invitro, ramos) was 2.4 and the “R value (DMSO/fragment)” value ([4]; 500 μM, invitro, ramos) was 20.0. The “R value (DMSO/fragment)” value ([5]; 500 μM, invitro, ramos) was 2.0.

In the case of `COc1ccc(C2CC(c3cccs3)=NN2C(=O)CCl)cc1` (stereo not drawn) [compound 4], the “R value (DMSO/fragment)” value ([1]; 250 μM, MDA-MB-231) is reported as 1.6, the “R value (DMSO/fragment)” value ([1]; 250 μM, Ramos) is reported as 1.1 and the “R value (DMSO/fragment)” value ([2]; 250 μM, in vitro, MDA-MB-231) is reported as 1.9. The “R value (DMSO/fragment)” value ([2]; 250 μM, in vitro, Ramos) was 0.5, the “R value (DMSO/fragment)” value ([3]; 250 μM, in vitro, MDA-MB-231) was 2.1 and the “R value (DMSO/fragment)” value ([3]; 250 μM, in vitro, Ramos) was 1.2. For the same compound, the “R value (DMSO/fragment)” value ([4]; 250 μM, in vitro, Ramos) was 20.0 and the “R value (DMSO/fragment)” value ([5]; 250 μM, in vitro, Ramos) was 1.5.

`C=CC(=O)N(c1ccccc1)c1ccc(Br)cc1` [compound 5] was tested, and the “isoTOP-ABPP ratio P19447_C342” value ([1]; 500 μM, ramos) was 4.1, the “isoTOP-ABPP ratio, P24752_C196” value ([2]; 500 μM, invitro, 231) was 1.5 and the “isoTOP-ABPP ratio, P24752_C196” value ([2]; 500 μM, invitro, ramos) was 2.2. For the same compound, the “isoTOP-ABPP ratio, P24752_C126” value ([3]; 500 μM, invitro, 231) was 0.9, the “isoTOP-ABPP ratio, P24752_C126” value ([3]; 500 μM, invitro, ramos) was 1.3 and the “isoTOP-ABPP ratio, P16455_C145” value ([4]; 500 μM, invitro, ramos) was 2.0. The “isoTOP-ABPP ratio, Q15910_C503” value ([5]; 500 μM, invitro, ramos) was 20.0.

For `CNS(=O)(=O)C=Cc1ccc2c(ccn2Cc2ccccc2)c1` [compound 6], the “isoTOP-ABPP ratio P19447_C342” value ([1]; 500 μM, 231) was 1.1, the “isoTOP-ABPP ratio, P24752_C196” value ([2]; 500 μM, invitro, 231) was 1.0 and the “isoTOP-ABPP ratio, P24752_C126” value ([3]; 500 μM, invitro, 231) was 0.9. For the same compound, the “isoTOP-ABPP ratio, Q15910_C503” value ([5]; 500 μM, invitro, 231) was 1.8.

For `Cn1cc(S(=O)(=O)N2CCOCC2)cc1C(=O)NC(=O)CCl` [compound 11], the “isoTOP-ABPP ratio P19447_C342” value ([1]; 500 μM, 231) was 2.9, the “isoTOP-ABPP ratio P19447_C342” value ([1]; 500 μM, ramos) was 1.5 and the “isoTOP-ABPP ratio, P24752_C196” value ([2]; 500 μM, invitro, 231) was 1.5. The “isoTOP-ABPP ratio, P24752_C196” value ([2]; 500 μM, invitro, ramos) was 1.3, the “isoTOP-ABPP ratio, P24752_C126” value ([3]; 500 μM, invitro, 231) was 1.5 and the “isoTOP-ABPP ratio, P16455_C145” value ([4]; 500 μM, invitro, ramos) was 20.0. For the same compound, the “isoTOP-ABPP ratio, Q15910_C503” value ([5]; 500 μM, invitro, ramos) was 1.3.

In the case of `O=C(CCl)NCCc1c[nH]c2ccccc12` [compound 13], the “isoTOP-ABPP ratio P19447_C342” value ([1]; 500 μM, 231) is reported as 1.0, the “isoTOP-ABPP ratio, P24752_C196” value ([2]; 500 μM, invitro, 231) is reported as 1.6 and the “isoTOP-ABPP ratio, P24752_C196” value ([2]; 500 μM, invitro, ramos) is reported as 1.7. For the same compound, the “isoTOP-ABPP ratio, P24752_C126” value ([3]; 500 μM, invitro, 231) was 9.6, the “isoTOP-ABPP ratio, P24752_C126” value ([3]; 500 μM, invitro, ramos) was 20.0 and the “isoTOP-ABPP ratio, P16455_C145” value ([4]; 500 μM, invitro, ramos) was 20.0. For the same compound, the “isoTOP-ABPP ratio, Q15910_C503” value ([5]; 500 μM, invitro, ramos) was 0.8.

With `C=CC(=O)N(Cc1cccnc1)c1ccc(Oc2ccccc2)c(C(F)(F)F)c1` [compound 15] the “isoTOP-ABPP ratio, P24752_C196” value ([2]; 500 μM, invitro, 231) was 0.9, the “isoTOP-ABPP ratio (reactivity profile), P24752_C196” value ([2]; 500 μm in-vitro ramos) was 1.6 and the “isoTOP-ABPP ratio, P24752_C126” value ([3]; 500 μM, invitro, 231) was 0.8. For the same compound, the “isoTOP-ABPP ratio (reactivity profile), P16455_C145” value [4] was 1.3 and the “isoTOP-ABPP ratio, Q15910_C503” value ([5]; 500 μM, invitro, 231) was 0.8.

In the case of `O=C(CCl)N1CCC(C(O)(c2ccccc2)c2ccccc2)CC1` [compound 20], the “isoTOP-ABPP ratio (reactivity profile), P19447_C342” value [1] is reported as 2.6, the “isoTOP-ABPP ratio (reactivity profile), P24752_C196” value ([2]; 500 μm in-vitro ramos) is reported as 2.9 and the “isoTOP-ABPP ratio (reactivity profile), P24752_C196” value ([2]; 500 μm in-vitro ramos_231) is reported as 3.7. For the same compound, the “isoTOP-ABPP ratio (reactivity profile), P24752_C126” value ([3]; 500 μm in-vitro ramos) was 20.0, the “isoTOP-ABPP ratio (reactivity profile), P24752_C126” value ([3]; 500 μm in-vitro ramos_231) was 10.6 and the “isoTOP-ABPP ratio (reactivity profile), P16455_C145” value [4] was 20.0.

`N#C/C(=C\c1cc(C(F)(F)F)cc(C(F)(F)F)c1)C(N)=O` [compound 23] was tested, and the “isoTOP-ABPP ratio (reactivity profile), P19447_C342” value [1] was 1.6, the “isoTOP-ABPP ratio (reactivity profile), P24752_C196” value ([2]; 500 μm in-vitro ramos) was 1.8 and the “isoTOP-ABPP ratio (reactivity profile), P24752_C126” value ([3]; 500 μm in-vitro ramos) was 0.8. For the same compound, the “isoTOP-ABPP ratio (reactivity profile), P24752_C126” value ([3]; 500 μm in-vitro ramos_231) was 0.8, the “isoTOP-ABPP ratio (reactivity profile), P16455_C145” value [4] was 1.0 and the “isoTOP-ABPP ratio (reactivity profile), Q15910_C503” value ([5]; 500 μm in-vitro ramos) was 2.0.
